According to patent US20040072815A1, “Antibiotic composition and method” (priority 2003, published 2004):

Experiments:
[1] = biological target: N-acetylated, α-linked, acidic dipeptidase (NAALADase) (Homo sapiens, UniProt Q04609); test: inhibition of NAALADase by clavulanic acid (applicant's discovery, no method given); format: biochemical; details: statement in words, no data
serine β-lactamase = details: background statement in words; cited from earlier work
bacteria = details: clavulanic acid alone; background statement in words; cited from earlier work

Chain of N-acetylated, α-linked, acidic dipeptidase (NAALADase) (Q04609 whole entry): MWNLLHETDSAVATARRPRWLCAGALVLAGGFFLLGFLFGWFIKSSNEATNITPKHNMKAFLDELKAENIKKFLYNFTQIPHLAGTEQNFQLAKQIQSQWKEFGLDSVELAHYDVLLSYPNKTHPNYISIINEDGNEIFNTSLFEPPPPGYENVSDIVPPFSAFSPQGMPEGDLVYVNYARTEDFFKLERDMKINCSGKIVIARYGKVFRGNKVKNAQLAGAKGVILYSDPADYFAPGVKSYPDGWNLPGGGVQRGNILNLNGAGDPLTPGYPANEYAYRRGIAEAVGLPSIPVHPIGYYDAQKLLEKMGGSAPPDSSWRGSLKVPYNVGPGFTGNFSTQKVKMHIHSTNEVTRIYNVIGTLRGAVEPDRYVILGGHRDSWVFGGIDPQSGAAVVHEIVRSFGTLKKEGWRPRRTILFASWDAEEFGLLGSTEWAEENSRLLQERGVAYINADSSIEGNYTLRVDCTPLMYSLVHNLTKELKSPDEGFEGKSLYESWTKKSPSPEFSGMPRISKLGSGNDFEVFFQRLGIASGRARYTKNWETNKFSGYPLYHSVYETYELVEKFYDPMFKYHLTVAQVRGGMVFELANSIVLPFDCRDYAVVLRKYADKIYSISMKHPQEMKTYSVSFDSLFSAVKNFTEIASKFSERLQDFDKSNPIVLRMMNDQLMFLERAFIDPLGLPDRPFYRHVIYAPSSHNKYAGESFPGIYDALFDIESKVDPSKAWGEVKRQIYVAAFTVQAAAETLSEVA

## O=C(O)[C@H]1/C(=C/CO)O[C@@H]2CC(=O)N21 [clavulanic acid]
[1]
  inhibition of NAALADase: potent inhibitor
Serine β-lactamase
  binding affinity for the serine β-lactamases: very high binding affinity
  inhibition of "serine" β-lactamase: potent inhibitor
bacteria
  antibacterial activity: only weak, though broad spectrum, antibacterial activity
